In ChEMBL document CHEMBL1150009, “Quinine analogs as non-peptide calcitonin gene-related peptide (CGRP) receptor antagonists” (Bioorg Med Chem Lett, 1997):
pIC50: −log10 of the molar value.

Legend:
[1] = target: T1, Calcitonin gene-related peptide type 1 receptor (Homo sapiens, UniProt O60894+Q16602); experiment: Displacement of [125I]hCGRP human Calcitonin gene-related peptide type receptor expressed in SK-N-MC neuroblastoma cell membranes
[2] = test system: SK-N-MC; experiment: In vitro inhibition of CGRP-mediated cAMP production in SK-N-MC cells; assay type: functional, cell-based; conditions: Homo sapiens
[3] = target: T2, Endothelin-1 receptor (Homo sapiens) (UniProt P25101); experiment: Compound (up to 30 uM) was tested in vitro for percent effectiveness for ligand binding to ETA receptors
T2 sequence (whole entry): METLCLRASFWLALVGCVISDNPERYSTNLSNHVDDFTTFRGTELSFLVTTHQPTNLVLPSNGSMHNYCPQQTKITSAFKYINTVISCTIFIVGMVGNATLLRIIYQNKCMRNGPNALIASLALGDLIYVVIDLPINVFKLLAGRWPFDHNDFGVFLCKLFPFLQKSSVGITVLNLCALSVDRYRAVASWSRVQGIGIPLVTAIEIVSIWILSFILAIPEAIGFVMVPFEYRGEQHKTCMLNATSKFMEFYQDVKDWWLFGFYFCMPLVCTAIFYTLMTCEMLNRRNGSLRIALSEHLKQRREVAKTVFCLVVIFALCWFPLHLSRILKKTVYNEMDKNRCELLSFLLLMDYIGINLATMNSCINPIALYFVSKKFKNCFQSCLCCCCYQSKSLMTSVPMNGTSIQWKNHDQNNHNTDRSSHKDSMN

[4] = target: G-protein coupled receptor 182 (Homo sapiens) (UniProt O15218); experiment: Compound (up to 30 uM) was tested in vitro for percent effectiveness for ligand binding to Adrenomedullin receptor
[5] = target: T3, Vasoactive intestinal peptide receptor (Gallus gallus) (UniProt A5A0U0); experiment: Compound (up to 30 uM) was tested in vitro for percent effectiveness for ligand binding to Vasoactive intestinal peptide receptor
T3 sequence (whole entry): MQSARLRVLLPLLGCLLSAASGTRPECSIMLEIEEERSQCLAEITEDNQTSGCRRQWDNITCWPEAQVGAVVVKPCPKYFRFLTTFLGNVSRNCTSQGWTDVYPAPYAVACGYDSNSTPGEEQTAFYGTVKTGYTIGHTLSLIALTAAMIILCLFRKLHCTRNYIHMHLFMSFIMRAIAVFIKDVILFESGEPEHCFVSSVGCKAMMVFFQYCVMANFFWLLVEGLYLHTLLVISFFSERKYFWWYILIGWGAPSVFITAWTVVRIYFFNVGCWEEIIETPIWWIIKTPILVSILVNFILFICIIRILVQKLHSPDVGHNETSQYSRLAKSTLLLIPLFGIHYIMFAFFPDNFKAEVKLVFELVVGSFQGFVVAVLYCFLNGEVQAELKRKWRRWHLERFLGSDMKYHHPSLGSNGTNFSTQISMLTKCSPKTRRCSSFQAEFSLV

[6] = Inhibitory concentration in vitro using porcine lung membrane (to identify non-peptide antagonist of the CGRP receptor); assay type: functional, cell membranes, Sus scrofa
[7] = target: T4, Endothelin receptor type B (Homo sapiens) (UniProt P24530); experiment: Compound (up to 30 uM) was tested in vitro for percent effectiveness for ligand binding to ETB receptors
T4 sequence (whole entry): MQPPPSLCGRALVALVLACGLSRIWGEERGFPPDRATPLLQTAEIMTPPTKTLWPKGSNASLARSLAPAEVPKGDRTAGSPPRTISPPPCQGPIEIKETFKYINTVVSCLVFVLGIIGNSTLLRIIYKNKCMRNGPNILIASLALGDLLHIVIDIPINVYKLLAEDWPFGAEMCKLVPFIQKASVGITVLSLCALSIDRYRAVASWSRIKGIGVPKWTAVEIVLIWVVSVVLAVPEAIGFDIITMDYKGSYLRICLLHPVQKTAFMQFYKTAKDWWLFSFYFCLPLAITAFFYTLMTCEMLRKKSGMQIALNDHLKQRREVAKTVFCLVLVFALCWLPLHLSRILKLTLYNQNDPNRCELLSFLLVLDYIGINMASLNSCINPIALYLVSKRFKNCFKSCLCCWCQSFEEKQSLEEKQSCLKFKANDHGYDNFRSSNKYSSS

[8] = target: T5, Type-1 angiotensin II receptor A (Rattus norvegicus) (UniProt P25095); experiment: Compound (up to 30 uM) was tested in vitro for percent effectiveness for ligand binding to Angiotensin II receptor
T5 sequence (whole entry): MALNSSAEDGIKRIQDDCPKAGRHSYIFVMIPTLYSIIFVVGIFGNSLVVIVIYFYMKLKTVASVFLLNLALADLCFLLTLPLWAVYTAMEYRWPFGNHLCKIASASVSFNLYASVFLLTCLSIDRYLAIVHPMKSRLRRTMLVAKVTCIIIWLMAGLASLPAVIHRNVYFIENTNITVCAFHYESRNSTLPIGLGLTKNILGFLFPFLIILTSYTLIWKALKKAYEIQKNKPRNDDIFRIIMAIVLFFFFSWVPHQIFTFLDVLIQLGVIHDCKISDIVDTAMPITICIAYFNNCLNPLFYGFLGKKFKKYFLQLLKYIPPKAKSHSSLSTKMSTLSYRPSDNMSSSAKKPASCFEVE

[9] = Compound (up to 30 uM) was tested in vitro for percent effectiveness for ligand binding to GLP-1 receptors
[10] = target: T1, Calcitonin gene-related peptide type 1 receptor; experiment: Compound was tested in vitro for its binding affinity towards recombinant human Calcitonin gene-related peptide type receptor (membranes of HEK293 cells) using [125I]hCGRP as radioligand; assay type: cell membranes

T1 sequence (Q16602 whole entry, one chain of several): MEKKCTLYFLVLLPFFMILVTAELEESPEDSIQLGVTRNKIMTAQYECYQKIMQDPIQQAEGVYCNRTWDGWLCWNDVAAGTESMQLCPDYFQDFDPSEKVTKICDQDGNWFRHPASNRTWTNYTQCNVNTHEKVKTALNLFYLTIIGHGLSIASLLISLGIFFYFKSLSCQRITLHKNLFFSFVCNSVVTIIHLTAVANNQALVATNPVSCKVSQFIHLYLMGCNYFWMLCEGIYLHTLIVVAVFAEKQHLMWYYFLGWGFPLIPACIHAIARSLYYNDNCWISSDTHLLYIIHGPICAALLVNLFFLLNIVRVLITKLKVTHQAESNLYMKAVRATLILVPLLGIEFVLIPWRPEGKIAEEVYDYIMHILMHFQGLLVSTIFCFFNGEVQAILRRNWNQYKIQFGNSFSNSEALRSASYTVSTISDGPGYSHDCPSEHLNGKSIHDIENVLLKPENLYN
Chain of G-protein coupled receptor 182 (Homo sapiens) (O15218 whole entry): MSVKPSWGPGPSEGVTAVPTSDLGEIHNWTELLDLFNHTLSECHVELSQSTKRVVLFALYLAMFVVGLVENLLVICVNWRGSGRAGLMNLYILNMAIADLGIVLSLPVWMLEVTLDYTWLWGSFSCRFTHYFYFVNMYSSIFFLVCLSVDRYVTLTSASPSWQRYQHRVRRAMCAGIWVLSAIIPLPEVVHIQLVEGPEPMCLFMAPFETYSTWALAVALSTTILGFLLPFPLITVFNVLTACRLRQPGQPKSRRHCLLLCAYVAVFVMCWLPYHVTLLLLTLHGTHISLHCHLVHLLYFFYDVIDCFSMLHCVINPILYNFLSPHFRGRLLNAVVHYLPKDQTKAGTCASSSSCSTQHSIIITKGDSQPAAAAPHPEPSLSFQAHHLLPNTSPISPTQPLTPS

Row | SMILES | pIC50 [1] | pIC50 [2] | further results
1 | CCC1CN2CCC1CC2[C@H](O)c1cc(-c2ccc3c(c2)OCO3)nc2ccc(OC)cc12 (stereo partly specified) | 4.13 | 4.22 | 
2 | CCC1CN2CCC1CC2[C@H](O)c1cc(-c2ccccc2)nc2ccc(OC)cc12 (stereo partly specified) | 4.02 | 4.19 | 
3 | CCC1CN2CCC1CC2[C@H](O)c1cc(-c2cccc([N+](=O)[O-])c2)nc2ccc(OC)cc12 (stereo partly specified) | 4.39 |  | 
4 | CCC1CN2CCC1CC2[C@H](O)c1cc(-c2ccc(OC)cc2)nc2ccc(OC)cc12 (stereo partly specified) | < 4.00 |  | 
5 | CCC1CN2CCC1CC2[C@H](O)c1cc(-c2ccc(Cl)cc2)nc2ccc(OC)cc12 (stereo partly specified) | 5.23 | 4.59 | inhibition [3]: < 20%; inhibition [4]: < 20%; inhibition [5]: < 20%; pIC50 [6]: 5.22; inhibition [7]: < 20%; inhibition [8]: < 20%; inhibition [9]: < 20%; pIC50 [10]: 5.26
6 | CCC1CN2CCC1CC2[C@H](O)c1cc(-c2ccc(Oc3ccccc3)cc2)nc2ccc(OC)cc12 (stereo partly specified) | 4.92 | 4.66 | 
7 | CCC1CN2CCC1CC2[C@H](O)c1cc(-c2ccc(C(F)(F)F)cc2)nc2ccc(OC)cc12 (stereo partly specified) | 5.28 | 4.62 | 
8 | CCC1CN2CCC1CC2[C@H](O)c1cc(-c2ccc(F)c(Cl)c2)nc2ccc(OC)cc12 (stereo partly specified) | 4.77 | 4.85 | 
9 | CCC1CN2CCC1CC2[C@H](O)c1cc(-c2cccc(C(F)(F)F)c2)nc2ccc(OC)cc12 (stereo partly specified) | 5.00 | 4.70 | 
10 | CCC1CN2CCC1CC2[C@H](O)c1cc(-c2ccc(Cl)cc2Cl)nc2ccc(OC)cc12 (stereo partly specified) | 4.43 | 4.55 | 
11 | CCC1CN2CCC1CC2[C@H](O)c1cc(-c2cccc3ccccc23)nc2ccc(OC)cc12 (stereo partly specified) | 4.48 | 4.64 | 
12 | CCC1CN2CCC1CC2[C@H](O)c1cc(-c2ccsc2)nc2ccc(OC)cc12 (stereo partly specified) | < 4.00 |  | 
13 | CCC1CN2CCC1CC2[C@H](O)c1cc(-c2cccc(N)c2)nc2ccc(OC)cc12 (stereo partly specified) | < 4.00 | < 4.00 | 
